Measured values reported in patent publication US9279811B2, “Methods and kits that identify tumors responsive to Src inhibitors” (OREGON HEALTH & SCIENCE UNIVERSITY, priority 2011, dated 2016).

Legend:
Assay type in all cases: cell-based, human
[1] = tested on: SN12C VHL WT cells; assay: Cell cycle analysis by flow cytometry (PI staining), SN12C VHL WT
Description: (§1) Transduction of empty retroviral vector (pBabe) served as a negative control.
(§2) Flow Cytometry: Cells were plated at a density such that they were no more than 70% confluent on the day of analysis. […] For propidium iodide staining, cells were trypsinized, collected by centrifugation and washed in PBS prior to fixing in 70% v/v ethanol. Ethanol was removed by washing in PBS. Cells were incubated with 100 μg/ml RNase A (Sigma) for 5 minutes and stained with 50 μg/ml PI for 30 minutes. […] Cells were stained with fluorescein isothiocyanate (FITC)-conjugated anti-BrdU antibodies (BD Biosciences) according to the manufacturer's instructions. Following multiple washes in blocking solution and PBS, cells were stained with 5 μg/ml PI for 30 minutes. The PI or BrdU/PI-stained samples were analyzed by an LSR® FACS (Becton Dickinson) and the cell cycle profile was analyzed with the FlowJo® software (Tree Star Inc.). Phosphoprotein flow cytometry analysis was performed as previously described in Shah N P et al, Cell 14, 485 (2008), incorporated by reference herein.

[2] = tested on: SN12C shVHL cells; assay: Cell cycle analysis by flow cytometry (PI staining), SN12C shVHL
Description: as §1, §2

[3] = tested on: ACHN cells expressing constitutively stable HIF-2α-P405A, P853A; assay: Cell cycle analysis of HIF-α mutant cell lines, ACHN HIF-2α; conditions: 48 hours post treatment
Description: as §1, §2

[4] = tested on: ACHN VHL WT; assay: Cell cycle analysis of HIF-α mutant cell lines, ACHN, VHL WT; conditions: 48 hours post treatment
Description: as §1, §2

[5] = tested on: ACHN shVHL cells; assay: Cell cycle analysis by flow cytometry (PI staining), ACHN shVHL
Description: as §1, §2

[6] = tested on: SN12C cells expressing constitutively stable HIF-2α-P405A, P853A; assay: Cell cycle analysis of HIF-α mutant cell lines, SN12C HIF-2α; conditions: 48 hours post treatment
Description: as §1, §2

[7] = tested on: SN12C VHL WT; assay: Cell cycle analysis of HIF-α mutant cell lines, SN12C, VHL WT; conditions: 48 hours post treatment
Description: as §1, §2

[8] = tested on: ACHN VHL WT cells; assay: Cell cycle analysis by flow cytometry (PI staining), ACHN VHL WT
Description: as §1, §2

[9] = tested on: VHL-WT SN12C cells; assay: Cell proliferation assay (cell count), SN12C
Description: (§3) Cells were split to sustain log phase growth.

[10] = tested on: SN12C-shVHL cells; assay: Cell proliferation assay (cell count), SN12C-shVHL
Description: as §3

## Cc1nc(Nc2ncc(C(=O)Nc3c(C)cccc3Cl)s2)cc(N2CCN(CCO)CC2)n1 [dasatinib]
[1]; dasatinib 25 nM
  Cell population (%) in G1: 59.5%
  Cell population (%) in G2/M: 15.0%
  Cell population (%) in S: 23.9%
[1]; dasatinib 50 nM
  Cell population (%) in G1: 63.6%
  Cell population (%) in G2/M: 11.7%
  Cell population (%) in S: 22.8%
[1]; dasatinib 100 nM
  Cell population (%) in G1: 70.0%
  Cell population (%) in G2/M: 11.7%
  Cell population (%) in S: 16.3%
[2]; dasatinib 25 nM
  Cell population (%) in G1: 45.2%
  Cell population (%) in G2/M: 17.5%
  Cell population (%) in S: 36.9%
[2]; dasatinib 50 nM
  Cell population (%) in G1: 45.4%
  Cell population (%) in G2/M: 15.7%
  Cell population (%) in S: 38.5%
[2]; dasatinib 100 nM
  Cell population (%) in G1: 46.1%
  Cell population (%) in G2/M: 18.5%
  Cell population (%) in S: 35.3%
[3]; dasatinib 25 nM
  Cell population (%) in G1: 53.9%
  Cell population (%) in G2/M: 16.1%
  Cell population (%) in S: 27.7%
[3]; dasatinib 50 nM
  Cell population (%) in G1: 51.9%
  Cell population (%) in G2/M: 19.3%
  Cell population (%) in S: 27.0%
[3]; dasatinib 100 nM
  Cell population (%) in G1: 55.3%
  Cell population (%) in G2/M: 17.7%
  Cell population (%) in S: 24.2%
[4]; dasatinib 25 nM
  Cell population (%) in G1: 59.2%
  Cell population (%) in G2/M: 17.1%
  Cell population (%) in S: 21.6%
[4]; dasatinib 50 nM
  Cell population (%) in G1: 56.4%
  Cell population (%) in G2/M: 16.0%
  Cell population (%) in S: 25.1%
[4]; dasatinib 100 nM
  Cell population (%) in G1: 60.1%
  Cell population (%) in G2/M: 22.0%
  Cell population (%) in S: 17.6%
[5]; dasatinib 25 nM
  Cell population (%) in G1: 50.2%
  Cell population (%) in G2/M: 9.8%
  Cell population (%) in S: 37.4%
[5]; dasatinib 50 nM
  Cell population (%) in G1: 47.6%
  Cell population (%) in G2/M: 14.2%
  Cell population (%) in S: 36.7%
[5]; dasatinib 100 nM
  Cell population (%) in G1: 46.1%
  Cell population (%) in G2/M: 10.9%
  Cell population (%) in S: 40.8%
[6]; dasatinib 25 nM
  Cell population (%) in G1: 54.8%
  Cell population (%) in G2/M: 20.6%
  Cell population (%) in S: 23.6%
[6]; dasatinib 50 nM
  Cell population (%) in G1: 55.7%
  Cell population (%) in G2/M: 22.1%
  Cell population (%) in S: 21.4%
[6]; dasatinib 100 nM
  Cell population (%) in G1: 49.7%
  Cell population (%) in G2/M: 21.3%
  Cell population (%) in S: 27.8%
[7]; dasatinib 25 nM
  Cell population (%) in G1: 60.1%
  Cell population (%) in G2/M: 13.3%
  Cell population (%) in S: 25.1%
[7]; dasatinib 50 nM
  Cell population (%) in G1: 59.2%
  Cell population (%) in G2/M: 11.4%
  Cell population (%) in S: 27.6%
[7]; dasatinib 100 nM
  Cell population (%) in G1: 60.4%
  Cell population (%) in G2/M: 11.1%
  Cell population (%) in S: 26.5%
[8]; dasatinib 25 nM
  Cell population (%) in G1: 59.7%
  Cell population (%) in G2/M: 12.6%
  Cell population (%) in S: 25.8%
[8]; dasatinib 50 nM
  Cell population (%) in G1: 62.1%
  Cell population (%) in G2/M: 16.0%
  Cell population (%) in S: 17.6%
[8]; dasatinib 100 nM
  Cell population (%) in G1: 64.5%
  Cell population (%) in G2/M: 14.9%
  Cell population (%) in S: 15.7%

## Cc1ccc(NC(=O)c2ccc(CN3CCN(C)CC3)cc2)cc1Nc1nccc(-c2cccnc2)n1 [imatinib]
[9]
  effect on proliferation: had no effect on the proliferation
[10]
  effect on proliferation: had no effect on the proliferation
